Source: the supplement of paper PMC10307832

What was measured:
Assay in all cases: relative viability (nuclei count vs DMSO), 5 days (fraction); higher = more cells survive
PAC-1 + Linsitinib = compound: C=CCc1cccc(/C=N/NC(=O)CN2CCN(Cc3ccccc3)CC2)c1O [PAC-1] + C[C@]1(O)C[C@@H](c2nc(-c3ccc4ccc(-c5ccccc5)nc4c3)c3c(N)nccn32)C1 [Linsitinib] (partner 1 µM)
Outline: (§1)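 Lung cancer cell lines were seeded in 1536-well plates and dosed by pin tool the next day, with either a single drug or a fixed anchor-drug dose combined with five library-drug doses (not always all listed) spaced in √10 steps. Five days later, one step fixed the cells and stained their nuclei (final 0.05% Triton X-100, 1% formaldehyde, 1 ug/ml Hoechst), and nuclei were counted on 4× images. Relative viability is the nuclei count in treated wells divided by the count in vehicle wells, and each value is the median of duplicate plates.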

Ibrutinib + Foretinib = compound: C=CC(=O)N1CCC[C@@H](n2nc(-c3ccc(Oc4ccccc4)cc3)c3c(N)ncnc32)C1 [Ibrutinib] + COc1cc2c(Oc3ccc(NC(=O)C4(C(=O)Nc5ccc(F)cc5)CC4)cc3F)ccnc2cc1OCCCN1CCOCC1 [Foretinib] (partner 0.25 µM)
Outline: as §1

Ibrutinib + Trametinib = compound: C=CC(=O)N1CCC[C@@H](n2nc(-c3ccc(Oc4ccccc4)cc3)c3c(N)ncnc32)C1 [Ibrutinib] + CC(=O)Nc1cccc(-n2c(=O)n(C3CC3)c(=O)c3c(Nc4ccc(I)cc4F)n(C)c(=O)c(C)c32)c1 [Trametinib] (partner 0.02 µM)
Outline: as §1

Ibrutinib + OSI-027 = compound: C=CC(=O)N1CCC[C@@H](n2nc(-c3ccc(Oc4ccccc4)cc3)c3c(N)ncnc32)C1 [Ibrutinib] + COc1cccc2cc(-c3nc([C@H]4CC[C@H](C(=O)O)CC4)n4ncnc(N)c34)[nH]c12 [OSI-027] (partner 0.5 µM)
Outline: as §1

LCLC-103H
relative viability (PAC-1 + Linsitinib; first compound 0.02 µM): 1.04
relative viability (PAC-1 + Linsitinib; first compound 0.06325 µM): 1.13
relative viability (PAC-1 + Linsitinib; first compound 0.2 µM): 1.14
relative viability (PAC-1 + Linsitinib; first compound 2 µM): 0.98
relative viability (Ibrutinib + Foretinib; first compound 0.005 µM): 0.809
relative viability (Ibrutinib + Foretinib; first compound 0.01581 µM): 0.623
relative viability (Ibrutinib + Foretinib; first compound 0.05 µM): 0.792
relative viability (Ibrutinib + Foretinib; first compound 0.1581 µM): 0.835
relative viability (Ibrutinib + Foretinib; first compound 0.5 µM): 0.728
relative viability (Ibrutinib + Trametinib; first compound 0.005 µM): 0.677
relative viability (Ibrutinib + Trametinib; first compound 0.01581 µM): 0.645
relative viability (Ibrutinib + Trametinib; first compound 0.05 µM): 0.716
relative viability (Ibrutinib + Trametinib; first compound 0.1581 µM): 0.739
relative viability (Ibrutinib + Trametinib; first compound 0.5 µM): 0.605
relative viability (Ibrutinib + OSI-027; first compound 0.005 µM): 0.459
relative viability (Ibrutinib + OSI-027; first compound 0.01581 µM): 0.409
relative viability (Ibrutinib + OSI-027; first compound 0.05 µM): 0.485
relative viability (Ibrutinib + OSI-027; first compound 0.1581 µM): 0.393
relative viability (Ibrutinib + OSI-027; first compound 0.5 µM): 0.485

RERF-LC-KJ
relative viability (PAC-1 + Linsitinib; first compound 0.02 µM): 0.904
relative viability (PAC-1 + Linsitinib; first compound 0.06325 µM): 0.818
relative viability (PAC-1 + Linsitinib; first compound 0.2 µM): 0.861
relative viability (PAC-1 + Linsitinib; first compound 2 µM): 0.887
relative viability (Ibrutinib + Foretinib; first compound 0.005 µM): 0.97
relative viability (Ibrutinib + Foretinib; first compound 0.01581 µM): 0.707
relative viability (Ibrutinib + Foretinib; first compound 0.05 µM): 0.841
relative viability (Ibrutinib + Foretinib; first compound 0.1581 µM): 0.895
relative viability (Ibrutinib + Foretinib; first compound 0.5 µM): 0.845
relative viability (Ibrutinib + Trametinib; first compound 0.005 µM): 0.956
relative viability (Ibrutinib + Trametinib; first compound 0.01581 µM): 0.815
relative viability (Ibrutinib + Trametinib; first compound 0.05 µM): 1.09
relative viability (Ibrutinib + Trametinib; first compound 0.1581 µM): 0.822
relative viability (Ibrutinib + Trametinib; first compound 0.5 µM): 0.742
relative viability (Ibrutinib + OSI-027; first compound 0.005 µM): 0.516
relative viability (Ibrutinib + OSI-027; first compound 0.01581 µM): 0.441
relative viability (Ibrutinib + OSI-027; first compound 0.05 µM): 0.497
relative viability (Ibrutinib + OSI-027; first compound 0.1581 µM): 0.579
relative viability (Ibrutinib + OSI-027; first compound 0.5 µM): 0.489

NCI-H1650
relative viability (Ibrutinib + Foretinib; first compound 0.005 µM): 1.01
relative viability (Ibrutinib + Foretinib; first compound 0.01581 µM): 0.793
relative viability (Ibrutinib + Foretinib; first compound 0.05 µM): 0.934
relative viability (Ibrutinib + Foretinib; first compound 0.5 µM): 0.732
relative viability (Ibrutinib + Trametinib; first compound 0.005 µM): 0.881
relative viability (Ibrutinib + Trametinib; first compound 0.01581 µM): 0.535
relative viability (Ibrutinib + Trametinib; first compound 0.05 µM): 0.46
relative viability (Ibrutinib + Trametinib; first compound 0.1581 µM): 0.527
relative viability (Ibrutinib + Trametinib; first compound 0.5 µM): 0.477
relative viability (Ibrutinib + OSI-027; first compound 0.005 µM): 0.554
relative viability (Ibrutinib + OSI-027; first compound 0.01581 µM): 0.506
relative viability (Ibrutinib + OSI-027; first compound 0.05 µM): 0.452
relative viability (Ibrutinib + OSI-027; first compound 0.1581 µM): 0.59
relative viability (Ibrutinib + OSI-027; first compound 0.5 µM): 0.482

NCI-H1355
relative viability (PAC-1 + Linsitinib; first compound 0.02 µM): 0.74
relative viability (PAC-1 + Linsitinib; first compound 0.06325 µM): 0.89
relative viability (PAC-1 + Linsitinib; first compound 0.2 µM): 0.806
relative viability (PAC-1 + Linsitinib; first compound 2 µM): 0.803
relative viability (Ibrutinib + Foretinib; first compound 0.005 µM): 0.863
relative viability (Ibrutinib + Foretinib; first compound 0.01581 µM): 0.88
relative viability (Ibrutinib + Foretinib; first compound 0.05 µM): 0.848
relative viability (Ibrutinib + Foretinib; first compound 0.1581 µM): 0.981
relative viability (Ibrutinib + Foretinib; first compound 0.5 µM): 0.793
relative viability (Ibrutinib + Trametinib; first compound 0.01581 µM): 0.395
relative viability (Ibrutinib + Trametinib; first compound 0.05 µM): 0.363
relative viability (Ibrutinib + Trametinib; first compound 0.1581 µM): 0.433
relative viability (Ibrutinib + Trametinib; first compound 0.5 µM): 0.368
relative viability (Ibrutinib + OSI-027; first compound 0.005 µM): 0.29
relative viability (Ibrutinib + OSI-027; first compound 0.01581 µM): 0.388
relative viability (Ibrutinib + OSI-027; first compound 0.05 µM): 0.382
relative viability (Ibrutinib + OSI-027; first compound 0.1581 µM): 0.347
relative viability (Ibrutinib + OSI-027; first compound 0.5 µM): 0.403

NCI-H2085
relative viability (PAC-1 + Linsitinib; first compound 0.02 µM): 0.891
relative viability (PAC-1 + Linsitinib; first compound 0.06325 µM): 0.936
relative viability (PAC-1 + Linsitinib; first compound 0.2 µM): 0.943
relative viability (PAC-1 + Linsitinib; first compound 2 µM): 1.04
relative viability (Ibrutinib + Foretinib; first compound 0.005 µM): 0.916
relative viability (Ibrutinib + Foretinib; first compound 0.01581 µM): 0.628
relative viability (Ibrutinib + Foretinib; first compound 0.05 µM): 0.941
relative viability (Ibrutinib + Foretinib; first compound 0.1581 µM): 1.1
relative viability (Ibrutinib + Foretinib; first compound 0.5 µM): 0.625
relative viability (Ibrutinib + Trametinib; first compound 0.005 µM): 0.499
relative viability (Ibrutinib + Trametinib; first compound 0.01581 µM): 0.548
relative viability (Ibrutinib + Trametinib; first compound 0.05 µM): 0.566
relative viability (Ibrutinib + Trametinib; first compound 0.1581 µM): 0.661
relative viability (Ibrutinib + Trametinib; first compound 0.5 µM): 0.463
relative viability (Ibrutinib + OSI-027; first compound 0.005 µM): 0.502
relative viability (Ibrutinib + OSI-027; first compound 0.01581 µM): 0.627
relative viability (Ibrutinib + OSI-027; first compound 0.05 µM): 0.663
relative viability (Ibrutinib + OSI-027; first compound 0.1581 µM): 0.556
relative viability (Ibrutinib + OSI-027; first compound 0.5 µM): 0.562

NCI-H650
relative viability (PAC-1 + Linsitinib; first compound 0.02 µM): 0.887
relative viability (PAC-1 + Linsitinib; first compound 0.06325 µM): 0.912
relative viability (PAC-1 + Linsitinib; first compound 0.2 µM): 0.761
relative viability (PAC-1 + Linsitinib; first compound 2 µM): 0.676
relative viability (Ibrutinib + Foretinib; first compound 0.005 µM): 1.07
relative viability (Ibrutinib + Foretinib; first compound 0.01581 µM): 0.94
relative viability (Ibrutinib + Foretinib; first compound 0.05 µM): 1.09
relative viability (Ibrutinib + Foretinib; first compound 0.1581 µM): 1.25
relative viability (Ibrutinib + Foretinib; first compound 0.5 µM): 1.17
relative viability (Ibrutinib + Trametinib; first compound 0.005 µM): 0.921
relative viability (Ibrutinib + Trametinib; first compound 0.01581 µM): 0.967
relative viability (Ibrutinib + Trametinib; first compound 0.05 µM): 1.01
relative viability (Ibrutinib + Trametinib; first compound 0.1581 µM): 1.06
relative viability (Ibrutinib + Trametinib; first compound 0.5 µM): 0.976
relative viability (Ibrutinib + OSI-027; first compound 0.005 µM): 0.515
relative viability (Ibrutinib + OSI-027; first compound 0.01581 µM): 0.481
relative viability (Ibrutinib + OSI-027; first compound 0.05 µM): 0.518
relative viability (Ibrutinib + OSI-027; first compound 0.1581 µM): 0.621
relative viability (Ibrutinib + OSI-027; first compound 0.5 µM): 0.539

NCI-H460
relative viability (PAC-1 + Linsitinib; first compound 0.02 µM): 0.701
relative viability (PAC-1 + Linsitinib; first compound 0.06325 µM): 0.81
relative viability (PAC-1 + Linsitinib; first compound 0.2 µM): 0.78
relative viability (PAC-1 + Linsitinib; first compound 2 µM): 0.405
relative viability (Ibrutinib + Foretinib; first compound 0.005 µM): 1.06
relative viability (Ibrutinib + Foretinib; first compound 0.01581 µM): 0.909
relative viability (Ibrutinib + Foretinib; first compound 0.1581 µM): 1.01
relative viability (Ibrutinib + Foretinib; first compound 0.5 µM): 0.992
relative viability (Ibrutinib + Trametinib; first compound 0.005 µM): 0.133
relative viability (Ibrutinib + Trametinib; first compound 0.01581 µM): 0.0919
relative viability (Ibrutinib + Trametinib; first compound 0.05 µM): 0.195
relative viability (Ibrutinib + Trametinib; first compound 0.1581 µM): 0.13
relative viability (Ibrutinib + Trametinib; first compound 0.5 µM): 0.152
relative viability (Ibrutinib + OSI-027; first compound 0.005 µM): 0.731
relative viability (Ibrutinib + OSI-027; first compound 0.01581 µM): 0.53
relative viability (Ibrutinib + OSI-027; first compound 0.05 µM): 0.626
relative viability (Ibrutinib + OSI-027; first compound 0.1581 µM): 0.566
relative viability (Ibrutinib + OSI-027; first compound 0.5 µM): 0.823

Calu-6
relative viability (PAC-1 + Linsitinib; first compound 0.02 µM): 0.826
relative viability (PAC-1 + Linsitinib; first compound 0.06325 µM): 0.902
relative viability (PAC-1 + Linsitinib; first compound 2 µM): 0.962
relative viability (Ibrutinib + Foretinib; first compound 0.005 µM): 0.961
relative viability (Ibrutinib + Foretinib; first compound 0.01581 µM): 0.853
relative viability (Ibrutinib + Foretinib; first compound 0.05 µM): 0.918
relative viability (Ibrutinib + Foretinib; first compound 0.1581 µM): 0.844
relative viability (Ibrutinib + Foretinib; first compound 0.5 µM): 0.826
